Source: US7273846B2, “Selective melanin-concentrating hormone type-1 receptor agonists” (priority 2002, dated 2007)
Residues, ends and D or L forms follow the SMILES beside them.

How the values were obtained:
MCH-1R [1] = target: T1, MCH-1R (Homo sapiens, UniProt Q99705)
Description: (§3) For transient expression, COS-7 cells were cultured in Dulbecco's modified Eagle medium (Gibco BRL, Rockville, Md.) with 10% heat inactivated fetal calf serum.
(§4) A suspension of 7×10^6 COS-7 cells were transfected with 20 μg of pCI-neo/MCH-2R plasmid by electroporation and cells were harvested after 60-72 hours. Membranes were prepared from transient and stable transfectants by hypotonic lysis, frozen in liquid nitrogen, and stored at −80° C.
(§5) Assays were optimized with respect to membrane preparations: for CHO/MCH-1R membranes, 1 μg of membranes per well yielded a>6× specific binding window and for COS or CHO MCH-2R membranes, 8 μg of membrane protein yielded a window of about 3×.
(§6) Specific binding is defined as the difference between total binding and non-specific binding conducted in the presence of 500 nM unlabeled hMCH. […] After equilibrating at room temperature for 3 hours, the plates were read in a TopCount (Packard, Meriden, Conn.). IC50 calculations were performed using Prism 3.0 (GraphPad. Software, San Diego, Calif.). The IC50 values were measured in three different experiments.

MCH-2R [2] = target: T2, MCH-2R (Homo sapiens, UniProt Q969V1); assay: Radioligand binding assay (SPA), MCH-2R; settings: for IC50: MCH-2R IC50, [125I]-[Phe13,Tyr19]-hMCH SPA, COS or CHO MCH-2R membranes
Description: as §3, §4, §5, §6

MCH-2R [3] = target: T2, MCH-2R; assay: Aequorin bioluminescence functional assay, 293AEQ17/MCH-2R cells; format: cell-based; parameters: expressed in transfected cells; MCH-2R Activation %: concentration or dose not given beside the values; settings: for MCH-2R Activation %: human MCH = 100; for EC50: aequorin, 293AEQ17/MCH-2R cells
Excerpt: (§1) The aequorin bioluminescence assay is a reliable test for identifying G-protein-coupled receptors that couple through the G protein subunit family consisting of Gq and G11. Gq and G11 coupling leads to the activation of phospholipase C, mobilization of intracellular calcium, and activation of protein kinase C.
Stable cell lines expressing either the MCH-1R or the MCH-2R and the aequorin reporter protein were used.
(§2) The cells were harvested, washed once in ECB medium, and resuspended to 500,000 cells/mL. 100 μL of cell suspension (corresponding to 5×10^4 cells) was then injected into the test plate containing the hMCH peptides, and the integrated light emission was recorded over 30 seconds, in 0.5-s units. 20 μL of lysis buffer (0.1% final Triton X-100 concentration) was then injected and the integrated light emission recorded over 10 seconds, in 0.5-s units. The “fractional response” values for each well were calculated by taking the ratio of the integrated response to the initial challenge to the total integrated luminescence including the Triton X-100 lysis response.

MCH-1R [4] = target: T1, MCH-1R; assay: Aequorin bioluminescence functional assay, 293AEQ17/MCH-1R cells; format: cell-based; parameters: expressed in transfected cells; settings: for MCH-1R Activation %: human MCH = 100, activation at 10 μM concentration; for fold lower agonist activity at hMCH-1R: relative to Ac-hMCH(6-16)-NH2; for EC50: aequorin, 293AEQ17/MCH-1R cells, read-out: MCH-1R EC50
Description: as §1
Stable cell lines expressing either the MCH-1R or the MCH-2R and the aequorin reporter protein were used. The assay was performed using a Luminoskan RT luminometer (Labsystems Inc., Gaithersburg, Md.) controlled by custom software written for a Macintosh PowerPC 6100.
as §2

MCH-1R [5] = target: T1, MCH-1R; assay: biochemical
Description: as §3, §4, §5, §6

T2 sequence (Q969V1 whole entry): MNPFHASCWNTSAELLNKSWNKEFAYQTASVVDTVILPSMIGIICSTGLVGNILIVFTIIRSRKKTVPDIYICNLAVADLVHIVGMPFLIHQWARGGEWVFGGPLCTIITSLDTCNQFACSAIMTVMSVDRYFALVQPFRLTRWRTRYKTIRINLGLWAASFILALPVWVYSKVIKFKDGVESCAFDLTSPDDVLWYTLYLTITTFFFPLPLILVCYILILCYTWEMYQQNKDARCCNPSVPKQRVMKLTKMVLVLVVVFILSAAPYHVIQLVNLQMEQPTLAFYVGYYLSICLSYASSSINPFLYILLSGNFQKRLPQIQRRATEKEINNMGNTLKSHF
T1 sequence (Q99705 whole entry): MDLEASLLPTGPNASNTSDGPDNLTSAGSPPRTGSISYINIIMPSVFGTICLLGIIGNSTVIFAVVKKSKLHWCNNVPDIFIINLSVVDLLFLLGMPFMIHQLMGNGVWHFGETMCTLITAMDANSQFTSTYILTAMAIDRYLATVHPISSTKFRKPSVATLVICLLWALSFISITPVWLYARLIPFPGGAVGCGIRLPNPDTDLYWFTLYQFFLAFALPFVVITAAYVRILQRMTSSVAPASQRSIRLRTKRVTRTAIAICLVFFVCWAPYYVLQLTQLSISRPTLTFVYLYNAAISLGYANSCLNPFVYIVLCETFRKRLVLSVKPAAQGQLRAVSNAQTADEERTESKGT

SMILES | Selectivity 2/1 (MCH-2R/MCH-1R IC50 binding ratio) (MCH-1R [1]) | IC50 (MCH-2R [2]) | agonism at hMCH-2R in words (MCH-2R [3]) | MCH-2R Activation % (MCH-2R [3]) | agonism at hMCH-1R in words (MCH-1R [4]) | Selectivity 2/1 (MCH-2R/MCH-1R EC50 activity ratio) (MCH-1R [4]) | MCH-1R Activation % (MCH-1R [4]) | fold lower binding affinity at hMCH-1R (MCH-1R [1]; relative to Ac-hMCH(6-16)-NH2) | binding to hMCH-2R in words (MCH-2R [2]) | EC50 (MCH-2R [3]) | fold lower agonist activity at hMCH-1R (MCH-1R [4]) | fold lower agonist potency at hMCH-2R (MCH-2R [3]; relative to Ac-hMCH(6-16)-NH2) | binding to hMCH-1R in words (MCH-1R [1]) | fold weaker binding at hMCH-2R (MCH-2R [2]; relative to Ac-hMCH(6-16)-NH2) | IC50 (MCH-1R [5]) | EC50 (MCH-1R [4]) | fold more selective as agonist for hMCH-1R than hMCH-2R (MCH-1R [4])
CSCC[C@@H]1NC(=O)[C@@H](NC(=O)[C@H](CCCNC(=N)N)NC(C)=O)CSSC[C@@H](C(N)=O)NC(=O)[C@@H]2CCCN2C(=O)[C@H](CCCNC(=N)N)NC(=O)[C@H](Cc2ccc(O)cc2)NC(=O)[C@H](C(C)C)NC(=O)[C@H](CCCNC(=N)N)NC(=O)[C@H](CC2CCCCC2)NC(=O)[C@H](CC(C)C)NC1=O [SEQ. ID. NO. 19] | 11 | 55 nM | poorly activated both receptors | 74% | poorly activated both receptors | 0.25 | 76% | – | – | – | – | – | – | – | – | – | –
CSCC[C@@H]1NC(=O)CCSSC[C@@H](C(N)=O)NC(=O)[C@@H]2CCCN2C(=O)[C@H](CCCNC(=N)N)NC(=O)[C@H](Cc2ccc(O)cc2)NC(=O)[C@H](C(C)C)NC(=O)[C@H](CCCNC(=N)N)NC(=O)CNC(=O)[C@H](CC(C)C)NC1=O [SEQ. ID. NO. 15] | 500 | 3500 nM | – | 47% | – | 5 | 92% | about 5 fold | very weak ligand | > 3000 nM | ~30 fold | – | – | – | – | – | –
CSCC[C@@H]1NC(=O)[C@@H](NC(=O)[C@H](CCCNC(=N)N)NC(C)=O)CSSC[C@@H](C(N)=O)NC(=O)[C@@H]2CCCN2C(=O)[C@H](CCCNC(=N)N)NC(=O)[C@H](Cc2ccc(O)cc2)NC(=O)[C@H](C(C)C)NC(=O)[C@H](CCCNC(=N)N)NC(=O)[C@H](CCCCN)NC(=O)[C@H](CC(C)C)NC1=O [SEQ. ID. NO. 24] | 86 | 1460 nM | – | 40% | – | 1 | 43% | – | – | – | 300 fold | 300 fold | – | – | – | – | –
CSCC[C@@H]1NC(=O)[C@@H](NC(=O)[C@H](N)CCCNC(=N)N)CSSC[C@@H](C(N)=O)NC(=O)[C@@H]2CCCN2C(=O)[C@H](CCCNC(=N)N)NC(=O)[C@H](Cc2ccc(O)cc2)NC(=O)[C@H](C(C)C)NC(=O)[C@H](CCCNC(=N)N)NC(=O)CNC(=O)[C@H](CC(C)C)NC1=O [SEQ. ID. NO. 4] | 130 | – | – | 83% | – | 0.5 | 130% | – | – | 55 nM | – | – | equipotent to Ac-hMCH(6-16)-NH2 | more than 10 fold | 35 nM | – | –
CSCC[C@@H]1NC(=O)[C@@H](NC(=O)[C@H](CCCNC(=N)N)NC(C)=O)CSSC[C@@H](C(N)=O)NC(=O)[C@@H]2CCCN2C(=O)[C@H](CCCNC(=N)N)NC(=O)[C@H](Cc2ccc(O)cc2)NC(=O)[C@H](C(C)C)NC(=O)[C@H](CCCNC(=N)N)NC(=O)[C@H](CO)NC(=O)[C@H](CC(C)C)NC1=O [SEQ. ID. NO. 26] (HELM PEPTIDE1{[ac].R.C.M.L.S.R.V.Y.R.P.C.[am]}$PEPTIDE1,PEPTIDE1,3:R3-12:R3$$$V2.0) | 100 | 55 nM | – | 87% | – | 0.7 | 120% | – | – | – | – | – | – | – | – | – | –
CSCC[C@@H]1NC(=O)[C@@H](NC(=O)[C@H](CCCNC(=N)N)NC(C)=O)CSSC[C@@H](C(N)=O)NC(=O)[C@@H]2CCCN2C(=O)[C@H](CCCNC(=N)N)NC(=O)[C@H](Cc2ccc(O)cc2)NC(=O)[C@H](C(C)C)NC(=O)[C@H](CCCNC(=N)N)NC(=O)[C@@H]2CCCN2C(=O)[C@H](CC(C)C)NC1=O [SEQ. ID. NO. 22] | 5 | 3500 nM | virtually inactive at micromolar concentrations | 13% | virtually inactive at micromolar concentrations | – | 10% | – | – | – | – | – | – | – | – | > 10000 nM | –
CSCC[C@@H]1NC(=O)[C@@H](NC(=O)[C@H](CCCNC(=N)N)NC(C)=O)CSSC[C@@H](C(N)=O)NC(=O)[C@@H]2CCCN2C(=O)[C@H](CCCNC(=N)N)NC(=O)[C@H](Cc2ccc(O)cc2)NC(=O)[C@H](C(C)C)NC(=O)[C@H](CCCNC(=N)N)NC(=O)[C@H](CC(N)=O)NC(=O)[C@H](CC(C)C)NC1=O [SEQ. ID. NO. 25] (HELM PEPTIDE1{[ac].R.C.M.L.N.R.V.Y.R.P.C.[am]}$PEPTIDE1,PEPTIDE1,3:R3-12:R3$$$V2.0) | 1800 | – | – | 86% | – | 4.7 | 126% | – | – | – | – | – | – | – | 0.28 nM | 51 nM | –
CSCC[C@@H]1NC(=O)[C@@H](NC(=O)[C@@H](CCCNC(=N)N)NC(C)=O)CSSC[C@@H](C(N)=O)NC(=O)[C@@H]2CCCN2C(=O)[C@H](CCCNC(=N)N)NC(=O)[C@H](Cc2ccc(O)cc2)NC(=O)[C@H](C(C)C)NC(=O)[C@H](CCCNC(=N)N)NC(=O)[C@H](CC(N)=O)NC(=O)[C@H](CC(C)C)NC1=O [SEQ. ID. NO. 29] (HELM PEPTIDE1{[ac].[dR].C.M.L.N.R.V.Y.R.P.C.[am]}$PEPTIDE1,PEPTIDE1,3:R3-12:R3$$$V2.0) | 6600 | – | – | 20% | activated hMCH-1R almost as efficiently as Ac-hMCH(6-16)NH2 | 150 | 120% | – | – | – | – | – | – | – | 0.5 nM | – | about 150 fold
CCCC[C@@H]1NC(=O)[C@@H](NC(=O)[C@@H](CCCNC(=N)N)NC(C)=O)CSSC[C@@H](C(N)=O)NC(=O)[C@@H]2CCCN2C(=O)[C@H](CCCNC(=N)N)NC(=O)[C@H](Cc2ccc(O)cc2)NC(=O)[C@H](C(C)C)NC(=O)[C@H](CCCNC(=N)N)NC(=O)[C@H](CC(N)=O)NC(=O)[C@H](CC(C)C)NC1=O [SEQ. ID. NO. 31] (HELM PEPTIDE1{[ac].[dR].C.[Nle].L.N.R.V.Y.R.P.C.[am]}$PEPTIDE1,PEPTIDE1,3:R3-12:R3$$$V2.0) | 5700 | – | – | 23% | potent and selective hMCH-1R agonists | 23 | 130% | – | – | – | – | – | – | – | 0.28 nM | – | –
CSCC[C@@H]1NC(=O)[C@@H](NC(=O)[C@H](CCCNC(=N)N)NC(C)=O)CSSC[C@@H](C(N)=O)NC(=O)[C@@H]2CCCN2C(=O)[C@H](CCCNC(=N)N)NC(=O)[C@H](Cc2ccc(O)cc2)NC(=O)[C@H](C(C)C)NC(=O)[C@H](CCCNC(=N)N)NC(=O)[C@H](Cc2ccccc2)NC(=O)[C@H](CC(C)C)NC1=O [SEQ. ID. NO. 20] (HELM PEPTIDE1{[ac].R.C.M.L.F.R.V.Y.R.P.C.[am]}$PEPTIDE1,PEPTIDE1,3:R3-12:R3$$$V2.0) | 19 | 1.9 nM | – | 88% | – | 0.75 | 75% | – | – | – | – | – | – | – | 0.1 nM | 66 nM | –
CSCC[C@@H]1NC(=O)[C@@H](NC(=O)[C@@H](CCCCN)NC(C)=O)CSSC[C@@H](C(N)=O)NC(=O)[C@@H]2CCCN2C(=O)[C@H](CCCNC(=N)N)NC(=O)[C@H](Cc2ccc(O)cc2)NC(=O)[C@H](C(C)C)NC(=O)[C@H](CCCNC(=N)N)NC(=O)CNC(=O)[C@H](CC(C)C)NC1=O [SEQ. ID. NO. 13] | 3800 | – | – | 55% | – | 22 | 130% | – | – | – | – | – | – | – | 0.3 nM | – | –
